In paper PMC11317440, “Soloxolone para-methylanilide effectively suppresses aggressive phenotype of glioblastoma cells including TGF-β1-induced glial-mesenchymal transition in vitro and inhibits growth of U87 glioblastoma xenografts in mice” (Frontiers in Pharmacology, 2024):

How the values were obtained:
[1] = tested on: TGF-β1-treated U118 cells; assay: Scratch (wound closure) assay, U118 cells; assay type: cell-based, human; details: U118, 7 50 nM, TGF-β1 50 ng/mL
Procedure: For the scratch assay, U118 cells were seeded in triplicate in 24-well plates at a concentration of 300,000 cells/well and allowed to adhere overnight. The cells were then scratched with a 10 μL plastic pipette tip, washed with PBS, and covered with serum-free DMEM containing TGF-β1 (50 ng/mL) and compound 7 (50 nM). Scratches were photographed at 0, 24, and 48 h using an EVOS XL Core microscope. Wound closure was determined by estimating the scratch area at each time point using ImageJ software and normalizing to the scratch area at 0 h.

[2] = tested on: U87 cells; assay: Annexin V-FITC/propidium iodide flow cytometry, U87, 48 h; assay type: cell-based, human
Procedure: To observe apoptosis and necrosis, U87 and U118 cells were stained with Annexin V-FITC and propidium iodide (ab14085; Abcam, Inc., Cambridge, MA, USA) after 48 h of incubation with compound 7 (0–2000 nM) according to the manufacturer’s protocol (n = 3). To quantify the total proportion of apoptotic cells in control and experimental groups, the events accumulated in the lower right quadrant (early apoptosis) and upper right quadrant (late apoptosis) were summarized.
After staining, 10,000 cells per sample were analyzed on a NovoCyte flow cytometer using NovoExpress software (ACEA Biosciences, Inc., USA).

[3] = tested on: TGF-β1-treated U118 cells; assay: Adhesion of U118 cells to culture plastic (TrypLE treatment, MTT); assay type: cell-based, human; details: TGF-β1 50 ng/mL, 7 50 nM, 48 h
Procedure: Adhesiveness of glioblastoma cells was assessed by two independent methods. First, cell adhesion to culture plastic was tested using a trypsin treatment assay, as previously described ([Sava et al., 2004]; [Mazuryk et al., 2015]; [van Dijk et al., 2017]). Briefly, U87 and U118 cells (10,000 cells per well of a 96-well plate, n = 4) were cultured with TGF-β1 (50 ng/mL) and non-toxic concentrations of soloxolone amides for 48 h and then treated with a 1:20 dilution of TrypLE Express (Gibco, USA) in PBS for 3 min at 37°C. Non-adherent cells were then removed by a triple PBS wash, and the remaining adherent cells were fixed with 4% formaldehyde and stained with crystal violet dye (0.1% w/v). Images were captured using the iBright 1,500 Imaging System (Invitrogen, USA), and the cell-occupied area was calculated using ImageJ. Alternatively, the number of adherent cells was quantified using the MTT assay.

[4] = tested on: U87 glioblastoma xenograft; assay: U87 glioblastoma xenograft model; assay type: in vivo, athymic nude mice; details: 7 20 mg/kg i.p.
Procedure: A xenograft model of tumor progression was induced by subcutaneous (s.c.) implantation of U87 glioblastoma cells (2×10^7 cells/mL) suspended in 0.1 mL of saline buffer into the left flank of athymic nude mice. On day 4 after tumor transplantation, the mice were divided into four groups: (1) mice received intraperitoneal (i.p.) injections of 10% Tween-80 (vehicle) (n = 6); (2) mice received i.p. injections of compound 7 in 10% Tween-80 at a dose of 20 mg/kg (n = 5); (3) mice received i.p. injections of TMZ in saline buffer at a dose of 10 mg/kg (n = 5); (4) mice received combination therapy of compound 7 and TMZ at the same dosage and administration route (n = 6). Compound 7 was administered three times per week; in total seven injections were performed. TMZ was administered daily except weekends; in total eleven injections were performed. During the experiment, the tumor volumes were determined three times per week using caliper measurements and were calculated as V = (D × d^2)/2, where D is the longest diameter of the tumor node and d is the shortest diameter of the tumor node perpendicular to D. Mice were sacrificed on day 19 after tumor transplantation and material (tumor nodes, livers, and kidneys) was collected for subsequent analysis.

[5] = tested on: U87 secondary tumorspheres; assay: Secondary tumorsphere formation, U87; assay type: cell-based, human
Procedure: For evaluation of spheroid growth, the bottom of the 96-well plate was covered with 1% agarose for non-adherent conditions. U87 cells (5,000 cells/well) were then seeded and allowed to form spheroids for 24 h, after which increasing concentrations of compound 7 (0–1,000 nM) were added (n = 8). Every other day of the 10-day experiment, fresh medium supplemented with compound 7 was added to half of the medium, and the spheroids were photographed using a camera-equipped ZEISS Primo Vert microscope (Carl Zeiss Microscopy GmbH, Jena, Germany). To assess the formation of secondary tumorspheres, cells were dissociated from primary tumorspheres after 4 days of compound 7 stimulation using TrypLE Express and were then seeded into agarose-coated 96-well plates (n = 8). On day 3, the resulting secondary spheroids were examined microscopically. Primary and secondary spheroid areas were quantified using ImageJ.

[6] = tested on: U87 cells; assay: Colony formation assay, U87 cells; assay type: cell-based, human; details: 10 days
Procedure: U87, U118 and EPNT-5 cells were seeded at a density of 200 cells/well in 96-well plates and treated with increasing concentrations of compound 7 (0–1,000 nM) dissolved in 10% FBS-containing DMEM (n = 5). On day 10, colonies were fixed with 4% formaldehyde and stained with crystal violet dye (0.1% w/v). Images were captured using the iBright 1,500 Imaging System (Invitrogen, USA) and the area of colonies with a minimum diameter of 100 µm was calculated using ImageJ. In the case of overlapping colonies, their total area was calculated. Finally, the area of the formed cell colonies was summed and normalized to the total colony area in the control.

[7] = tested on: U87 glioblastoma cells; assay: MTT cell viability assay, U87 cells, 48 h; assay type: cell-based, human
Procedure: Cells were seeded in quadruplicate in 96-well plates at 10,000 cells/well and allowed to adhere overnight. The medium was then replaced with serum-free DMEM containing increasing concentrations of soloxolone amides for 48 h. After incubation, 3-(4,5-dimethylthiazol-2-yl)-2,5-diphenyltetrazolium bromide (MTT dye) was added at a final concentration of 0.5 mg/mL and left for 2 h. The resulting formazan crystals were dissolved in DMSO and the optical density was measured at 570 nm using a Multiscan RC plate reader (Thermo LabSystems, Helsinki, Finland).

Cc1ccc(NC(=O)[C@@]2(C)CC[C@]3(C)CC[C@]4(C)[C@H](C(=O)C=C5[C@@]6(C)C=C(C#N)C(=O)C(C)(C)C6CC[C@]54C)[C@@H]3C2)cc1 (stereo partly drawn) [compound 7, N-p-tolyl-2-cyano-3,12-dioxo-18βH-olean-9(11),1(2)-dien-30-amide]
effect on TGF-β1-enhanced wound closure at 24 h ([1]; 24 h): completely reversed | reduction of the effect of TGF-β1 on wound closure at 48 h ([1]; 48 h): 34% | percentage of cells in the right quadrants (apoptosis) ([2]; U87, 7 450 nM): 3.7% | necrosis (upper left quadrant) ([2]; U87, 7 1,000 nM): 23.4% | percentage of cells in the right quadrants (apoptosis) ([2]; U87, 7 1,000 nM): 40% | necrosis (upper left quadrant) ([2]; U87, 7 2000 nM): 14.8% | percentage of cells in the right quadrants (apoptosis) ([2]; U87, 7 2000 nM): 83.3% | TGF-β1-induced decrease in U118 cell adhesion to culture plastic [3]: effectively reversed | reduction in tumor volume compared to the vehicle group ([4]; day 11): 2.1 fold | reduction in tumor volume compared to the vehicle group ([4]; day 13): 3.2 fold | reduction in tumor volume compared to the vehicle group ([4]; day 15, TMZ 10 mg/kg i.p.): 6.6 fold | reduction in tumor volume compared to the vehicle group ([4]; day 18, TMZ 10 mg/kg i.p.): 7.2 fold | reduction in tumor weight compared to the vehicle ([4]; end of the experiment (day 19), TMZ 10 mg/kg i.p.): 8 fold | increase of secondary tumorsphere area ([5]; U87, 7 50 nM for 4 days, p-value <0.01): 22.6% | increase of secondary tumorsphere area ([5]; U87, 7 100 nM for 4 days, not statistically significant): 6.6% | decrease of secondary tumorsphere area ([5]; U87, 7 450 nM for 4 days): 23.9% | decrease of secondary tumorsphere area ([5]; U87, 7 1,000 nM for 4 days): 84.1% | inhibition at 0.05 µM ([6]; Homo sapiens, U-87 MG, 240 h, U87, 7 50 nM): 48.7% | inhibition at 0.1 µM ([6]; Homo sapiens, U-87 MG, 240 h, U87, 7 100 nM): 74.2% | colony area ([6]; U87, 7 50 nM): 51.3% | colony area ([6]; U87, 7 1,000 nM): 3.9% | relative cytotoxicity ([7]; 48 h of incubation, U87): high | IC50 ([7]; Homo sapiens, U-87 MG, 48 h): 0.161 µM | MNTC ([7]; Homo sapiens, U-87 MG, 48 h, read-out: non-toxic concentration that reduced U87 cell viability by less than 10%): 50 nM
